Measurements published in PubChem BioAssay (NCI).
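Where inhibition never reached the appropriate level, the endpoint shown equals the highest concentration tested. Otherwise, values were interpolated linearly from a five-concentration, 48-hour dose response in 96-well plates. TGI: total growth inhibition.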

Experiments:
Test in all cases: inhibition of tumour cell growth, NCI panel, 48 h
MOLT-4 leukemia = test system: MOLT-4 leukemia
NCI-H226 lung = test system: NCI-H226 lung
RPMI-8226 leukemia = test system: RPMI-8226 leukemia
M14 melanoma = test system: M14 melanoma
MDA-MB-435 = test system: MDA-MB-435
TK-10 renal = test system: TK-10 renal
HOP-62 NSCLC = test system: HOP-62 NSCLC
COLO 205 colon = test system: COLO 205 colon
HCT-15 colon = test system: HCT-15 colon
SF-295 CNS = test system: SF-295 CNS
LOX IMVI melanoma = test system: LOX IMVI melanoma
OVCAR-8 ovarian = test system: OVCAR-8 ovarian
NCI-H460 lung = test system: NCI-H460 lung
K-562 leukemia = test system: K-562 leukemia
EKVX NSCLC = test system: EKVX NSCLC
DU-145 prostate = test system: DU-145 prostate
SN12C renal = test system: SN12C renal
SK-OV-3 ovarian = test system: SK-OV-3 ovarian
MALME-3M melanoma = test system: MALME-3M melanoma

Compound	TGI (MOLT-4 leukemia) [µM]	TGI (NCI-H226 lung) [µM]	TGI (RPMI-8226 leukemia) [µM]	TGI (M14 melanoma) [µM]	TGI (MDA-MB-435) [µM]	TGI (TK-10 renal) [µM]	TGI (HOP-62 NSCLC) [µM]	TGI (COLO 205 colon) [µM]	TGI (HCT-15 colon) [µM]	TGI (SF-295 CNS) [µM]	TGI (LOX IMVI melanoma) [µM]	TGI (OVCAR-8 ovarian) [µM]	TGI (NCI-H460 lung) [µM]	TGI (K-562 leukemia) [µM]	TGI (EKVX NSCLC) [µM]	TGI (DU-145 prostate) [µM]	TGI (SN12C renal) [µM]	TGI (SK-OV-3 ovarian) [µM]	TGI (MALME-3M melanoma) [µM]
CC(C)=C1C(=O)C[C@]2(C)C[C@H]3O[C@]3(C)CC[C@@H]3O[C@@]3(C)CC[C@@H]12	> 50	> 50	> 50	> 50	> 50	> 50	> 50	> 50	> 50	> 50	> 50	> 50	> 50	> 50	> 50	> 50	> 50	> 50	
O=[N+]([O-])c1cccc2nc3ccccc3c(NCCCCNc3c4ccccc4nc4cccc([N+](=O)[O-])c34)c12	0.0887	2.66		0.199		0.0304	0.372	0.173	1.02	1.02	0.258	1.09	0.0574		2.11	0.133	0.38	1.69	0.255
Cc1sc(Nc2ccc(Nc3nc(-c4ccccc4)c(C)s3)cc2)nc1-c1ccccc1	> 100	> 100		> 100	> 100	> 100	> 100	42.1	> 100	> 100	> 100	> 100	> 100	> 100	> 100	> 100	> 100	> 100	> 100
COc1ccc2c(c1)CC[C@@H]1[C@@H]2CC[C@]2(C)C(=O)/C(=C/c3ccc(N(C)C)cc3)C[C@@H]12	> 100		> 100	> 100	> 100	96.9	44.8	> 100	> 100	> 100			> 100		> 100	> 100		> 100	> 100
Cc1cc(=O)[nH]c(NNC(C#N)c2cccc(O)c2)n1 (centres undefined)	> 100	> 100	> 100	> 100		> 100	> 100	> 100	> 100	> 100	> 100	> 100	> 100	> 100			> 100	> 100	> 100
Nc1ccccc1-c1noc(=O)[nH]1	> 100	> 100	> 100	> 100	> 100	> 100	> 100	> 100	> 100	> 100	> 100	> 100		> 100	> 100	> 100	> 100	> 100	
